Results: patent publication US8802597B2, “Herbicidal pyrimidines” (E I du Pont de Nemours and Company, priority 2003, dated 2014)

Legend:
Assay type in all cases: in vivo
[1] = system: bermudagrass (Cynodon dactylon); test: Test C pre/postemergence; conditions: for Bermudagrass plant response rating: scale 0 to 100 (0 no effect, 100 complete control)
How it was run: (§1)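 Visual injury ratings, 0 (no effect) to 100 (complete control), made 12 to 14 days after treatment by comparison with untreated controls. Greenhouse plants received test chemical in a surfactant-containing non-phytotoxic solvent, either preemergence on planted seeds or postemergence at the 1- to 4-leaf stage.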

[2] = system: common ragweed (Ambrosia elatior); test: Test C pre/postemergence; conditions: for Ragweed plant response rating: scale 0 to 100 (0 no effect, 100 complete control)
How it was run: as §1

[3] = system: goosegrass (Eleusine indica); test: Test C pre/postemergence; conditions: for Goosegrass plant response rating: scale 0 to 100 (0 no effect, 100 complete control)
How it was run: as §1

[4] = system: pigweed (Amaranthus retroflexus); test: Test C pre/postemergence; conditions: for Pigweed plant response rating: scale 0 to 100 (0 no effect, 100 complete control)
How it was run: as §1

[5] = system: velvetleaf (Abutilon theophrasti); test: Test C pre/postemergence; conditions: for Velvetleaf plant response rating: scale 0 to 100 (0 no effect, 100 complete control)
How it was run: as §1

[6] = system: woolly cupgrass (Eriochloa villosa); test: Test C pre/postemergence; conditions: for Cupgrass, Woolly plant response rating: scale 0 to 100 (0 no effect, 100 complete control)
How it was run: as §1

[7] = system: yellow nutsedge (Cyperus esculentus); test: Test C pre/postemergence; conditions: for Nutsedge, Yellow plant response rating: scale 0 to 100 (0 no effect, 100 complete control)
How it was run: as §1

[8] = system: chickweed (Stellaria media); test: Test C postemergence; conditions: for Chickweed plant response rating: scale 0 to 100 (0 no effect, 100 complete control); for Plant response rating, Chickweed: scale 0 to 100
How it was run: as §1

[9] = Postemergence, 250 g ai/ha, scale 0 to 100
[10] = Postemergence, 500 g ai/ha, scale 0 to 100
[11] = Preemergence, 62 g ai/ha, scale 0 to 100, 0 no effect, 100 complete control
[12] = Preemergence, 125 g ai/ha, scale 0 to 100
[13] = Preemergence, 250 g ai/ha, scale 0 to 100
[14] = Preemergence, 500 g ai/ha, scale 0 to 100

In the case of COC(=O)CNc1nc(C2CC2)nc(C(=O)OC)c1Br [Compound 10], the “Bermudagrass plant response rating” value ([1]; Postemergence, 62 g ai/ha) is reported as 0, the “Plant response rating, Bermudagrass” value [1, 9] is reported as 0 and the “Plant response rating, Bermudagrass” value [1, 10] is reported as 0. For the same molecule, the “Plant response rating, Bermudagrass” value ([1]; Postemergence, 125 g ai/ha, scale 0 to 100) was 0, the “Plant response rating, Bermudagrass” value [1, 11] was 0 and the “Plant response rating, Bermudagrass” value [1, 12] was 0. The “Plant response rating, Bermudagrass” value [1, 13] was 0, the “Plant response rating, Bermudagrass” value [1, 14] was 0 and the “Ragweed plant response rating” value ([2]; Postemergence, 62 g ai/ha) was 45. The “Ragweed plant response rating” value ([2]; Postemergence, 125 g ai/ha) was 65, the “Plant response rating, Ragweed” value [2, 9] was 80 and the “Plant response rating, Ragweed” value [2, 10] was 90. For the same molecule, the “Plant response rating, Ragweed” value [2, 11] was 0, the “Plant response rating, Ragweed” value [2, 12] was 0 and the “Plant response rating, Ragweed” value [2, 13] was 55. For the same molecule, the “Plant response rating, Ragweed” value [2, 14] was 85, the “Goosegrass plant response rating” value ([3]; Postemergence, 62 g ai/ha) was 0 and the “Goosegrass plant response rating” value ([3]; Postemergence, 125 g ai/ha) was 0. The “Plant response rating, Goosegrass” value [3, 9] was 0, the “Plant response rating, Goosegrass” value [3, 10] was 0 and the “Plant response rating, Goosegrass” value [3, 11] was 0. For the same molecule, the “Plant response rating, Goosegrass” value [3, 12] was 0, the “Plant response rating, Goosegrass” value [3, 13] was 0 and the “Plant response rating, Goosegrass” value [3, 14] was 0. The “Pigweed plant response rating” value ([4]; Postemergence, 62 g ai/ha) was 65, the “Pigweed plant response rating” value ([4]; Postemergence, 125 g ai/ha) was 80 and the “Plant response rating, Pigweed” value [4, 9] was 95. For the same molecule, the “Plant response rating, Pigweed” value [4, 10] was 95, the “Plant response rating, Pigweed” value [4, 11] was 20 and the “Plant response rating, Pigweed” value [4, 12] was 55. For the same molecule, the “Plant response rating, Pigweed” value [4, 13] was 70, the “Plant response rating, Pigweed” value [4, 14] was 85 and the “Velvetleaf plant response rating” value ([5]; Postemergence, 62 g ai/ha) was 65. For the same molecule, the “Velvetleaf plant response rating” value ([5]; Postemergence, 125 g ai/ha) was 70, the “Plant response rating, Velvetleaf” value [5, 9] was 80 and the “Plant response rating, Velvetleaf” value [5, 10] was 90. For the same molecule, the “Plant response rating, Velvetleaf” value [5, 11] was 0, the “Plant response rating, Velvetleaf” value [5, 12] was 0 and the “Plant response rating, Velvetleaf” value [5, 13] was 0. For the same molecule, the “Plant response rating, Velvetleaf” value [5, 14] was 60, the “Cupgrass, Woolly plant response rating” value ([6]; Postemergence, 62 g ai/ha) was 0 and the “Cupgrass, Woolly plant response rating” value ([6]; Postemergence, 125 g ai/ha) was 0. For the same molecule, the “Plant response rating, Cupgrass, Woolly” value [6, 9] was 0, the “Plant response rating, Cupgrass, Woolly” value [6, 10] was 0 and the “Plant response rating, Cupgrass, Woolly” value [6, 11] was 0. The “Plant response rating, Cupgrass, Woolly” value [6, 12] was 0, the “Plant response rating, Cupgrass, Woolly” value [6, 13] was 0 and the “Plant response rating, Cupgrass, Woolly” value [6, 14] was 0. For the same molecule, the “Nutsedge, Yellow plant response rating” value ([7]; Postemergence, 62 g ai/ha) was 0, the “Nutsedge, Yellow plant response rating” value ([7]; Postemergence, 125 g ai/ha) was 0 and the “Plant response rating, Nutsedge, Yellow” value [7, 9] was 0. The “Plant response rating, Nutsedge, Yellow” value [7, 10] was 0, the “Plant response rating, Nutsedge, Yellow” value [7, 11] was 0 and the “Plant response rating, Nutsedge, Yellow” value [7, 12] was 0. For the same molecule, the “Chickweed plant response rating” value ([8]; 62 g ai/ha) was 0, the “Plant response rating, Chickweed” value ([8]; 125 g ai/ha) was 0 and the “Plant response rating, Chickweed” value ([8]; 250 g ai/ha) was 20. For the same molecule, the “Plant response rating, Chickweed” value ([8]; 500 g ai/ha) was 70.

In the case of CN(C)N=Cc1nc(C2CC2)nc(N)c1Br [Compound 50], the “Bermudagrass plant response rating” value ([1]; Postemergence, 62 g ai/ha) is reported as 50, the “Bermudagrass plant response rating” value ([1]; Postemergence, 125 g ai/ha) is reported as 75 and the “Plant response rating, Bermudagrass” value [1, 9] is reported as 90. The “Plant response rating, Bermudagrass” value [1, 10] was 95, the “Plant response rating, Bermudagrass” value [1, 12] was 0 and the “Plant response rating, Bermudagrass” value [1, 13] was 0. For the same molecule, the “Plant response rating, Bermudagrass” value [1, 14] was 95, the “Ragweed plant response rating” value ([2]; Postemergence, 62 g ai/ha) was 20 and the “Ragweed plant response rating” value ([2]; Postemergence, 125 g ai/ha) was 45. For the same molecule, the “Plant response rating, Ragweed” value [2, 9] was 45, the “Plant response rating, Ragweed” value [2, 10] was 80 and the “Plant response rating, Ragweed” value [2, 11] was 70. The “Plant response rating, Ragweed” value [2, 12] was 85, the “Plant response rating, Ragweed” value [2, 13] was 95 and the “Plant response rating, Ragweed” value [2, 14] was 100. The “Goosegrass plant response rating” value ([3]; Postemergence, 62 g ai/ha) was 0, the “Goosegrass plant response rating” value ([3]; Postemergence, 125 g ai/ha) was 0 and the “Plant response rating, Goosegrass” value [3, 9] was 0. The “Plant response rating, Goosegrass” value [3, 10] was 0, the “Plant response rating, Goosegrass” value [3, 11] was 0 and the “Plant response rating, Goosegrass” value [3, 12] was 0. For the same molecule, the “Plant response rating, Goosegrass” value [3, 13] was 0, the “Plant response rating, Goosegrass” value [3, 14] was 0 and the “Pigweed plant response rating” value ([4]; Postemergence, 62 g ai/ha) was 75. The “Pigweed plant response rating” value ([4]; Postemergence, 125 g ai/ha) was 80, the “Plant response rating, Pigweed” value [4, 9] was 85 and the “Plant response rating, Pigweed” value [4, 10] was 95. The “Plant response rating, Pigweed” value [4, 11] was 75, the “Plant response rating, Pigweed” value [4, 12] was 90 and the “Plant response rating, Pigweed” value [4, 13] was 95. For the same molecule, the “Plant response rating, Pigweed” value [4, 14] was 100, the “Velvetleaf plant response rating” value ([5]; Postemergence, 62 g ai/ha) was 50 and the “Velvetleaf plant response rating” value ([5]; Postemergence, 125 g ai/ha) was 55. The “Plant response rating, Velvetleaf” value [5, 9] was 70, the “Plant response rating, Velvetleaf” value [5, 10] was 80 and the “Plant response rating, Velvetleaf” value [5, 11] was 65. The “Plant response rating, Velvetleaf” value [5, 12] was 75, the “Plant response rating, Velvetleaf” value [5, 13] was 85 and the “Plant response rating, Velvetleaf” value [5, 14] was 100. The “Cupgrass, Woolly plant response rating” value ([6]; Postemergence, 62 g ai/ha) was 0, the “Cupgrass, Woolly plant response rating” value ([6]; Postemergence, 125 g ai/ha) was 0 and the “Plant response rating, Cupgrass, Woolly” value [6, 9] was 15. For the same molecule, the “Plant response rating, Cupgrass, Woolly” value [6, 10] was 30, the “Plant response rating, Cupgrass, Woolly” value [6, 11] was 0 and the “Plant response rating, Cupgrass, Woolly” value [6, 12] was 0. For the same molecule, the “Plant response rating, Cupgrass, Woolly” value [6, 13] was 0, the “Plant response rating, Cupgrass, Woolly” value [6, 14] was 40 and the “Nutsedge, Yellow plant response rating” value ([7]; Postemergence, 62 g ai/ha) was 0. For the same molecule, the “Nutsedge, Yellow plant response rating” value ([7]; Postemergence, 125 g ai/ha) was 0, the “Plant response rating, Nutsedge, Yellow” value [7, 9] was 0 and the “Plant response rating, Nutsedge, Yellow” value [7, 10] was 0. The “Plant response rating, Nutsedge, Yellow” value [7, 11] was 0, the “Plant response rating, Nutsedge, Yellow” value [7, 12] was 0 and the “Plant response rating, Nutsedge, Yellow” value [7, 13] was 0. For the same molecule, the “Plant response rating, Nutsedge, Yellow” value [7, 14] was 0, the “Chickweed plant response rating” value ([8]; 62 g ai/ha) was 0 and the “Chickweed plant response rating” value ([8]; 125 g ai/ha) was 0. For the same molecule, the “Plant response rating, Chickweed” value ([8]; 500 g ai/ha) was 20.
